Consider 14 compounds from PMC6272155, “Plasmin Regulation through Allosteric, Sulfated, Small Molecules” (Molecules, 2015).

Like-named read-outs stand apart in the source and are kept apart here.

By IC50 is commonly meant the midpoint of a concentration-inhibition curve. By inhibition is commonly meant the percentage by which the read-out fell short of the control.

Holding throughout (format): biochemical
For one test, the target named is T1, human Lys-plasmin (Homo sapiens, UniProt P00747).
T1 construct: purchased Haematologic Technologies (Essex Junction, VT, USA)
T1 sequence (P00747 581-810 limits assumed): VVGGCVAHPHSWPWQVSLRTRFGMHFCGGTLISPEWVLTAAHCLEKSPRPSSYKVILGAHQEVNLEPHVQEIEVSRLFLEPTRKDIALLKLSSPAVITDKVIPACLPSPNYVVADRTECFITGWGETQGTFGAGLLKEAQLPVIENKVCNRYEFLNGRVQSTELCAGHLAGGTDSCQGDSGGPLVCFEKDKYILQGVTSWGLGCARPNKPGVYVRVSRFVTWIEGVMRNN
T1 sequence (P00747 97-580 partner limits assumed): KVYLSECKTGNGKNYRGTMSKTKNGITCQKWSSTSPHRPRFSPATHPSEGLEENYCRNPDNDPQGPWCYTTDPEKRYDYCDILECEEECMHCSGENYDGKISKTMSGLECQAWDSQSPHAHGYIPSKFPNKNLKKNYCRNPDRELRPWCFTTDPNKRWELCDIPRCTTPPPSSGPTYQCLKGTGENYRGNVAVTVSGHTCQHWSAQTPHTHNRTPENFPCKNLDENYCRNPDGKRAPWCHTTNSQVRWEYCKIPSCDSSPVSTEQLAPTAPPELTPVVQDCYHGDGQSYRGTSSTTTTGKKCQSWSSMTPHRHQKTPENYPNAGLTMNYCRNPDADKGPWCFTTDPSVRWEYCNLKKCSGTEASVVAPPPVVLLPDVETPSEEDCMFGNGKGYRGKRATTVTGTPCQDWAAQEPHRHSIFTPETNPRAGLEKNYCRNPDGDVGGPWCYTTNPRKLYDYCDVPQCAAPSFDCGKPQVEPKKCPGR
Briefly: Direct inhibition of human Lys-plasmin, chromogenic substrate (Spectrozyme PL) hydrolysis assay. Particulars: for IC50: human plasmin 20 nM, 50 mM Tris-HCl pH 7.4, 150 mM NaCl, 37 °C, Spectrozyme PL; for diminished potency relative to 32: 13-atom and 14-atom linkers vs 12-atom linker of 32; for inhibition at 400 µM: 400 μM inhibitor, n ≥ 2, read-out: plasmin inhibition in initial screening; for decrease in inhibition potency relative to 31 and 32, respectively: tetrasulfated flavonoid replaced by para-sulfated quinazolinone. As to the method: Important to emphasize here that the potency of NSGM-based inhibitors was evaluated by measuring their IC50's (X-axis), whereas the efficacy was assessed by measuring the overall change in residual plasmin activity (%) (ΔY = YM − Y0) (Y-axis).
Direct inhibition of human Lys-plasmin was measured using a chromogenic substrate hydrolysis assay on a microplate reader (FlexStation III, Molecular Devices, Sunnyvale, CA, USA), as reported earlier. Briefly, to each well of a 96-well microplate containing 85 µL of 50 mM Tris-HCl buffer, pH 7.4, containing 150 mM NaCl, 0.1% PEG8000, and 0.02% Tween80 at 37 °C was added 5 µL potential NSGM-based inhibitor (20–100 mM aqueous solution) (or vehicle alone) and 5 µL enzyme. The final concentration of the enzyme was 20 nM. After 5 min incubation, 5 µL of 1 mM Spectrozyme PL was rapidly added and the residual enzyme activity was measured from the initial rate of increase in A405. Relative residual enzyme activity (Y) as a function of the concentration of sulfated molecule was fitted using logistic equation 1 to obtain the potency (IC50), efficacy (ΔY) and Hill slope (HS) of inhibition. In this equation, YM and Y0 are the maximal and minimal values of Y: (1) Y = Y0+YM−Y0/1+10^(log[Inhibitor]0 − logIC50) ×HS […]
In this equation, Y is the ratio of residual plasmin activity in the presence of inhibitor to that in its absence (fractional residual activity). YM and Y0 are the maximum and minimum possible values of the fractional residual proteinase activity. The difference between these two values is used to evaluate the inhibitor’s efficacy to reduce the residual enzyme activity under the assay condition.
Direct inhibition of human plasmin by sulfated small molecules. Direct inhibition of plasmin was measured using a chromogenic substrate hydrolysis assay on a microplate reader (FlexStation III, Molecular Devices), as reported earlier. Briefly, to each well of a 96-well microplate containing […]
Tween80 at 37 °C was added 5 µL potential inhibitor (or vehicle alone) and 5 µL enzyme. The final concentration of the enzyme was 20 nM. After 5 min incubation, 5 µL of 1 mM Spectrozyme PL was rapidly added and the residual enzyme activity was measured from the initial rate of increase in A405.
Relative residual enzyme activity (Y, activity in the presence of inhibitor to that in its absence) as a function of the concentration of SPGG derivative was fitted using logistic Equation (1) to obtain the potency (IC50), efficacy (ΔY) and Hill slope (HS) of inhibition. In this equation, YM and Y0 are the maximal and minimal values of Y.

In a further test the target is thrombin (Homo sapiens, UniProt P00734). Briefly: Direct inhibition of thrombin, chromogenic substrate (Spectrozyme TH) hydrolysis assay. Particulars: pH 7.4, 37 °C; read-out: IC50 against thrombin. As to the method:
(§1) The rationale behind targeting an allosteric site on plasmin was to achieve inhibition specificity over the closely related serine proteases. In contrast to active sites, allosteric sites are not as highly conserved and therefore present a powerful opportunity for discovering a selective modulator of enzyme function. […] Using appropriate small peptide-based chromogenic substrates, the fractional residual thrombin and factor Xa activities were measured under the physiological condition of pH 7.4 and 37 °C.
(§2) Briefly, to each well of a 96-well microplate containing 185 μL of 20–50 mM Tris-HCl buffer, pH 7.4, containing 100–150 mM NaCl, 0.1% PEG8000 and 0.02% Tween80 at either 25 °C (thrombin) or 37 °C (factor Xa) was added 5 μL of 10–20 mM inhibitor (or vehicle) and 5 μL of the enzyme. The final concentrations of the enzymes were 6 nM (thrombin) and 1.09 nM (factor Xa). After 10 min incubation, 5 μL 1.0 mM Spectrozyme TH or 2.5 mM Spectrozyme FXa, was rapidly added and the residual enzyme activity was measured from the initial rate of increase in A405. Relative residual enzyme activity (Y, activity in the presence of inhibitor to that in its absence) as a function of the concentration of inhibitor was measured.

For a further test, the target named is factor Xa (Homo sapiens, UniProt P00742). Briefly: Direct inhibition of factor Xa, chromogenic substrate (Spectrozyme FXa) hydrolysis assay. How it is done: as §1, §2
Sequence of factor Xa (P00742 235-488 limits assumed): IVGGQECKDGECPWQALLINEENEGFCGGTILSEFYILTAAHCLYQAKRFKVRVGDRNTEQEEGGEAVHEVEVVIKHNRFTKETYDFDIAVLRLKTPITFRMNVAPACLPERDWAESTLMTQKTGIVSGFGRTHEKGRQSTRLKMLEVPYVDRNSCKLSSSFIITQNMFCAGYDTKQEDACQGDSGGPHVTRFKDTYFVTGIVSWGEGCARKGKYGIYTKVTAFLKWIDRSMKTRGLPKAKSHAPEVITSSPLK
Sequence of factor Xa (P00742 41-179 partner limits assumed): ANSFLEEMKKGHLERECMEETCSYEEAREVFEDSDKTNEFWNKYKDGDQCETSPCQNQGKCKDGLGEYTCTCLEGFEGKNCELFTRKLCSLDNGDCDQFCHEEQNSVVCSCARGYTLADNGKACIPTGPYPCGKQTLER
[1] abbreviates: logistic fit, pH 7.4, 37 °C, read-out: ΔY% (efficacy, YM − Y0).
[2] abbreviates: pH 7.4, read-out: ΔY% (efficacy, YM − Y0), logistic fit, pH 7.4, 37 °C.
The mark [3] stands for this setting: pH 7.4, logistic fit, pH 7.4, 37 °C, read-out: ΔY% (efficacy, YM − Y0).

In turn, `O=c1c2ccccc2nc(-c2ccc(OS(=O)(=O)O)cc2)n1CCCCCCCCCCCCn1cc(Cn2c(-c3ccc(OS(=O)(=O)O)cc3)nc3ccccc3c2=O)nn1` [compound 47] returned a half-inhibitory concentration (IC50) at human Lys-plasmin of 89 ± 7 µM. In addition, the “HS (Hill slope)” value on human Lys-plasmin (logistic fit, pH 7.4, 37 °C) is 1.9 ± 0.6. The Emax on human Lys-plasmin (setting [1]) is 98 ± 7%.

Turning to `O=c1c(OS(=O)(=O)O)c(-c2ccc(OS(=O)(=O)O)c(OS(=O)(=O)O)c2)oc2cc(OS(=O)(=O)O)cc(OCc3cn(CCCCCCCn4c(-c5ccc(OS(=O)(=O)O)cc5)nc5ccccc5c4=O)nn3)c12` [compound 31, 3-(8-(4-((2-(3,4-O,O-Disulfonato-phenyl)-3,7-O,O-disulfonato-4-oxo-4H-chromen-5-yloxy)methyl)-1H-1,2,3-triazol-1-yl)heptyl)-2-(4-O-sulfonato-phenyl)quinazolin-4(3H)-one], the IC50 was 56 ± 2 µM on human Lys-plasmin; above 500 µM on thrombin; above 250 µM at factor Xa (pH 7.4, 37 °C, read-out: IC50 against factor Xa). Moreover, the “HS (Hill slope)” value at human Lys-plasmin (logistic fit, pH 7.4, 37 °C) was found to be 3.2 ± 0.8. In addition, the “ΔY% (efficacy, YM − Y0)” value at human Lys-plasmin (logistic fit, pH 7.4, 37 °C) was 87 ± 4%. Moreover, at human Lys-plasmin (setting [2]), the Emax is 87%. Also, the “selectivity index for plasmin over factor Xa” value at factor Xa is “about 5 fold”.

With `O=c1c2ccccc2nc(-c2ccc(OS(=O)(=O)O)cc2)n1Cc1cn(CCn2cc(Cn3c(-c4ccc(OS(=O)(=O)O)cc4)nc4ccccc4c3=O)nn2)nn1` [compound 41], the midpoint of inhibition at human Lys-plasmin, the IC50, lay at 125 ± 9 µM. Also, at human Lys-plasmin (logistic fit, pH 7.4, 37 °C), the “HS (Hill slope)” value is listed as 4.0 ± 1.8 and the “ΔY% (efficacy, YM − Y0)” value came out at 54 ± 5%. In addition, at human Lys-plasmin (setting [3]), the Emax turned out to be 54%.

Consider `O=c1c(OS(=O)(=O)O)c(-c2ccc(OS(=O)(=O)O)c(OS(=O)(=O)O)c2)oc2cc(OS(=O)(=O)O)cc(OCc3cn(CCCCCCCCCCn4c(-c5ccc(OS(=O)(=O)O)cc5)nc5ccccc5c4=O)nn3)c12` [compound 34], for which, at human Lys-plasmin, the “diminished potency relative to 32” value is given as ~ 3 fold and the IC50 was determined as 130 ± 6 µM. In addition, the “HS (Hill slope)” value on human Lys-plasmin (logistic fit, pH 7.4, 37 °C) is listed as 3.9 ± 1.0. In addition, the Emax at human Lys-plasmin (setting [2]) was determined as 83 ± 5%.

As to `O=S(=O)(O)OC[C@H]1O[C@@](COS(=O)(=O)O)(O[C@H]2O[C@H](COS(=O)(=O)O)[C@@H](OS(=O)(=O)O)[C@H](OS(=O)(=O)O)[C@H]2OS(=O)(=O)O)[C@@H](OS(=O)(=O)O)[C@@H]1OS(=O)(=O)O` [compound 17, sucrose octasulfate, reference compound], the inhibition at 400 µM at human Lys-plasmin (pH 7.4, 37 °C) is at most 70%.

Regarding `O=c1c(OS(=O)(=O)O)c(-c2ccc(OS(=O)(=O)O)c(OS(=O)(=O)O)c2)oc2cc(OS(=O)(=O)O)cc(OCCCOc3cc(OS(=O)(=O)O)cc4oc(-c5ccc(OS(=O)(=O)O)c(OS(=O)(=O)O)c5)c(OS(=O)(=O)O)c(=O)c34)c12` [compound 51], on human Lys-plasmin, the “loss in potency relative to 4-atom linker flavonoid homodimers (52, 54)” value amounted to 37 fold and the IC50 was around 2830 µM.

`O=c1c2ccccc2nc(-c2ccc(OS(=O)(=O)O)cc2)n1CCCCCCCCCCCn1cc(Cn2c(-c3ccc(OS(=O)(=O)O)cc3)nc3ccccc3c2=O)nn1` [compound 46] displayed an IC50 against human Lys-plasmin of 111 ± 7 µM. In addition, at human Lys-plasmin (logistic fit, pH 7.4, 37 °C), the “HS (Hill slope)” value was 2.4 ± 0.4. Also, the Emax at human Lys-plasmin (setting [1]) turned out to be 95 ± 2%.

`O=c1c2ccccc2nc(-c2ccc(OS(=O)(=O)O)cc2)n1CCCCCCCn1cc(Cn2c(-c3ccc(OS(=O)(=O)O)cc3)nc3ccccc3c2=O)nn1` [compound 42]: on human Lys-plasmin, the IC50 worked out at 161 ± 24 µM; the “decrease in inhibition potency relative to 31 and 32, respectively” value is listed as 3–4 fold. For the same compound, the “HS (Hill slope)” value at human Lys-plasmin (logistic fit, pH 7.4, 37 °C) is recorded as 1.0 ± 0.2. For the same compound, at human Lys-plasmin (setting [1]), the Emax worked out at 92 ± 4%.

On human Lys-plasmin, `O=c1c2ccccc2nc(-c2ccc(OS(=O)(=O)O)cc2)n1CCCCCCCCCn1cc(Cn2c(-c3ccc(OS(=O)(=O)O)cc3)nc3ccccc3c2=O)nn1` [compound 44] displayed a half-maximal inhibitory concentration (IC50) of 137 ± 11 µM. Moreover, the “HS (Hill slope)” value at human Lys-plasmin (logistic fit, pH 7.4, 37 °C) was 1.0 ± 0.2. Moreover, the Emax at human Lys-plasmin (setting [1]) came to 102 ± 9%.

For the compound `O=c1c(OS(=O)(=O)O)c(-c2ccc(OS(=O)(=O)O)c(OS(=O)(=O)O)c2)oc2cc(OS(=O)(=O)O)cc(OCCOc3cc(OS(=O)(=O)O)cc4oc(-c5ccc(OS(=O)(=O)O)c(OS(=O)(=O)O)c5)c(OS(=O)(=O)O)c(=O)c34)c12` [compound 50], at human Lys-plasmin, the “loss in potency relative to 4-atom linker flavonoid homodimers (52, 54)” value is on record as 2 fold and 185 ± 68 µM corresponded to half-maximal inhibition (IC50). For the same compound, the inhibition at 400 µM on human Lys-plasmin (pH 7.4, 37 °C) is above 90%. Besides, at human Lys-plasmin (logistic fit, pH 7.4, 37 °C), the “HS (Hill slope)” value is 1.4 ± 0.2 and the “ΔY% (efficacy, YM − Y0)” value amounted to 38 ± 15%. Also, at human Lys-plasmin (setting [3]), the Emax turned out to be 38%.

For the compound `O=c1c(OS(=O)(=O)O)c(-c2ccc(OS(=O)(=O)O)c(OS(=O)(=O)O)c2)oc2cc(OS(=O)(=O)O)cc(OCc3cn(CCCCCCCCCn4c(-c5ccc(OS(=O)(=O)O)cc5)nc5ccccc5c4=O)nn3)c12` [compound 33], on human Lys-plasmin, the “diminished potency relative to 32” value is listed as ~ 3 fold and 128 ± 8 µM corresponded to half-maximal inhibition (IC50). The “HS (Hill slope)” value at human Lys-plasmin (logistic fit, pH 7.4, 37 °C) is on record as 1.8 ± 0.4. Also, the Emax on human Lys-plasmin (setting [2]) was 89 ± 7%.

Take `O=c1c2ccccc2nc(-c2ccc(OS(=O)(=O)O)cc2)n1CCCCCCCCn1cc(Cn2c(-c3ccc(OS(=O)(=O)O)cc3)nc3ccccc3c2=O)nn1` [compound 43]: on human Lys-plasmin, the IC50 was found to be 183 ± 43 µM; the “decrease in inhibition potency relative to 31 and 32, respectively” value is listed as 3–4 fold. Further, on human Lys-plasmin (logistic fit, pH 7.4, 37 °C), the “HS (Hill slope)” value is given as 1.0 ± 0.3. For the same compound, on human Lys-plasmin (setting [1]), the Emax came to 94 ± 21%.

`O=c1c(OS(=O)(=O)O)c(-c2ccc(OS(=O)(=O)O)c(OS(=O)(=O)O)c2)oc2cc(OS(=O)(=O)O)cc(OCCCCCOc3cc(OS(=O)(=O)O)cc4oc(-c5ccc(OS(=O)(=O)O)c(OS(=O)(=O)O)c5)c(OS(=O)(=O)O)c(=O)c34)c12` [compound 53]: on human Lys-plasmin, the “loss in potency relative to 4-atom linker flavonoid homodimers (52, 54)” value is reported as 3 fold and the IC50 amounted to 209 ± 25 µM. Moreover, at human Lys-plasmin (pH 7.4, 37 °C), the inhibition at 400 µM is above 90%. In addition, the “HS (Hill slope)” value on human Lys-plasmin (logistic fit, pH 7.4, 37 °C) is listed as 0.6 ± 0.1. Moreover, the Emax at human Lys-plasmin (setting [3]) was 105 ± 8%.

`O=c1c2ccccc2nc(-c2ccc(OS(=O)(=O)O)cc2)n1CCCCCCCCCCn1cc(Cn2c(-c3ccc(OS(=O)(=O)O)cc3)nc3ccccc3c2=O)nn1` [compound 45] had an IC50 on human Lys-plasmin of 98 ± 9 µM. Besides, the “HS (Hill slope)” value on human Lys-plasmin (logistic fit, pH 7.4, 37 °C) came out at 1.7 ± 0.6. The Emax at human Lys-plasmin (setting [1]) was 94 ± 6%.
